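Dose response: 5 concentrations. Exposure: 48 h. Format: 96-well plates. Endpoint: linear interpolation; highest concentration if not reached. GI50: concentration for 50% inhibition of growth. TGI: total growth inhibition.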 Bounds are passed on as bounds.

Test systems include COLO 205 colon; HCT-15 colon; K-562 leukemia; OVCAR-4 ovarian; OVCAR-5 ovarian; SF-268 CNS; SK-OV-3 ovarian; SNB-19 CNS; MDA-MB-435; PC-3 prostate.
Assay in all cases: NCI tumour cell line growth inhibition, 48 h

On to `CC1c2[nH]c3ccccc3c2CCN1O` (configuration not stated), for which the TGI with COLO 205 colon, with HCT-15 colon, with K-562 leukemia, with OVCAR-4 ovarian, in the experiment with OVCAR-5 ovarian and in the experiment with SF-268 CNS was more than 100 µM each time. Besides, the TGI with SK-OV-3 ovarian and in the experiment on SNB-19 CNS was more than 100 µM throughout.

In the case of `C=C1C(OC(C)=O)CC(OC(C)=O)C2(C)C(OC(C)=O)C(OC(C)=O)C3=C(C)C(OC(=O)/C=C/c4ccccc4)CC(C(OC(C)=O)C12)C3(C)C` (configuration not stated), the TGI in the experiment with COLO 205 colon, in the experiment with HCT-15 colon, in the experiment on K-562 leukemia, with OVCAR-4 ovarian, with OVCAR-5 ovarian and in the experiment on SF-268 CNS was more than 100 µM each time. For the same compound, the TGI with SK-OV-3 ovarian and in the experiment with SNB-19 CNS was more than 100 µM in each case.

In the case of `COc1cc(/C=C2\CCCC3=C2N=C2SC(C)=NN2C3c2cc(OC)c(OC)c(OC)c2)cc(OC)c1OC` (configuration not stated), the GI50 with COLO 205 colon is 0.429 µM; in the experiment on K-562 leukemia, 0.42 µM; in the experiment on MDA-MB-435 it was 0.341 µM; in the experiment with PC-3 prostate, more than 100 µM; with SK-OV-3 ovarian, more than 100 µM. For the same compound, the TGI in the experiment with COLO 205 colon, in the experiment on K-562 leukemia, in the experiment on MDA-MB-435, in the experiment on PC-3 prostate and with SK-OV-3 ovarian was more than 100 µM in each case.

As to `Nc1ccc(/C=C/c2ccc3cccnc3c2)cc1`, the TGI in the experiment with COLO 205 colon, with HCT-15 colon, with K-562 leukemia, in the experiment on MDA-MB-435, in the experiment with OVCAR-5 ovarian and with PC-3 prostate was more than 100 µM throughout. Besides, the TGI with SF-268 CNS, in the experiment with SK-OV-3 ovarian and with SNB-19 CNS was more than 100 µM throughout.

Consider `C[C@H]1C=C2C(=O)O[C@H]3CC[C@@H](C1)[C@@]23O`, for which the TGI with COLO 205 colon was found to be 12.5 µM; in the experiment with HCT-15 colon it was 14.6 µM; in the experiment with K-562 leukemia, 8.26 µM; in the experiment on OVCAR-4 ovarian it was 24.4 µM; in the experiment with OVCAR-5 ovarian it was 12.7 µM; in the experiment with SF-268 CNS it was 15.2 µM. Also, the TGI is 22.4 µM with SK-OV-3 ovarian and 30.6 µM in the experiment with SNB-19 CNS.

Regarding `O=C1NC2C(O)CCCCC2C12CCCCC2` (configuration not stated), the TGI with COLO 205 colon, in the experiment on HCT-15 colon, in the experiment with K-562 leukemia, with OVCAR-4 ovarian, in the experiment on OVCAR-5 ovarian and in the experiment on SF-268 CNS was more than 100 µM each time. Moreover, the TGI in the experiment with SK-OV-3 ovarian and in the experiment on SNB-19 CNS was more than 100 µM each time.

As to `CC(=O)Oc1ccc2c(c1)C(=O)c1nc(C)c(C)nc1C2=O`, the TGI in the experiment with COLO 205 colon was more than 100 µM; with HCT-15 colon, more than 100 µM; in the experiment with K-562 leukemia, more than 100 µM; in the experiment on OVCAR-4 ovarian it was more than 89 µM; with OVCAR-5 ovarian it was more than 100 µM; in the experiment on SF-268 CNS it was more than 100 µM. The figures for the TGI in the experiment with SK-OV-3 ovarian and in the experiment on SNB-19 CNS were more than 100 µM and more than 93.8 µM, respectively.

As to `CC(=O)NN1C(=O)C(Cc2ccccc2)c2ccccc21` (configuration not stated), the TGI in the experiment on COLO 205 colon, with HCT-15 colon, in the experiment with K-562 leukemia, with OVCAR-4 ovarian, in the experiment with OVCAR-5 ovarian and in the experiment with SF-268 CNS was more than 100 µM each time. In addition, the TGI in the experiment with SK-OV-3 ovarian and in the experiment on SNB-19 CNS was more than 100 µM each time.

Turning to `CO/N=C(\COc1ccc2oc(-c3ccccc3)cc(=O)c2c1)c1ccc(F)cc1`, the GI50 in the experiment with COLO 205 colon was 59.5 µM; in the experiment on HCT-15 colon it was 40.2 µM; with K-562 leukemia it was 81.2 µM; with MDA-MB-435 it was more than 100 µM; in the experiment on OVCAR-4 ovarian it was 22.3 µM; in the experiment on OVCAR-5 ovarian, 17.5 µM. Moreover, the GI50 was 22.6 µM in the experiment with PC-3 prostate and 20 µM in the experiment with SK-OV-3 ovarian. Besides, the TGI is more than 100 µM with COLO 205 colon; more than 100 µM with HCT-15 colon; more than 100 µM with K-562 leukemia; more than 100 µM in the experiment on MDA-MB-435; 55.8 µM in the experiment on OVCAR-4 ovarian; 39.1 µM in the experiment with OVCAR-5 ovarian. The TGI with PC-3 prostate worked out at 57.3 µM; with SK-OV-3 ovarian, 44.8 µM.

Consider `CC[PH+](CC)CC.[Cl][Au]`, for which the GI50 is 1.85 µM with COLO 205 colon; 1.31 µM in the experiment on HCT-15 colon; 0.319 µM in the experiment on K-562 leukemia; 1.47 µM in the experiment on OVCAR-4 ovarian; 15.2 µM in the experiment on OVCAR-5 ovarian; 1.51 µM in the experiment with SF-268 CNS. Also, the GI50 in the experiment with SK-OV-3 ovarian was 16.4 µM; in the experiment with SNB-19 CNS it was 2.26 µM. In addition, the TGI with COLO 205 colon worked out at 5.79 µM; in the experiment with HCT-15 colon, 3.17 µM; in the experiment with K-562 leukemia, 1.19 µM; with OVCAR-4 ovarian, 2.97 µM; in the experiment on OVCAR-5 ovarian it was 28.5 µM; in the experiment on SF-268 CNS, 3.35 µM. Besides, the TGI in the experiment with SK-OV-3 ovarian stood at 30 µM; in the experiment with SNB-19 CNS, 6.14 µM.

Take `CC(=O)[CH-]C(=O)c1ccccc1.CC(=O)[CH-]C(=O)c1ccccc1.[O-]c1ccc2c(c1)OCO2.[O-]c1ccc2c(c1)OCO2.[Ti+4]`: the GI50 was 32 µM in the experiment on COLO 205 colon; 34.4 µM in the experiment with HCT-15 colon; 31.5 µM with K-562 leukemia; 31.8 µM in the experiment on OVCAR-4 ovarian; 31.9 µM with OVCAR-5 ovarian; 33.6 µM in the experiment on SF-268 CNS. For the same compound, the GI50 was 30.1 µM in the experiment on SK-OV-3 ovarian and 20.8 µM in the experiment on SNB-19 CNS. The TGI in the experiment with COLO 205 colon, in the experiment on HCT-15 colon, in the experiment with K-562 leukemia, in the experiment on OVCAR-4 ovarian, with OVCAR-5 ovarian and in the experiment on SF-268 CNS was more than 100 µM in each case. The TGI in the experiment on SK-OV-3 ovarian is more than 100 µM; in the experiment with SNB-19 CNS, 69.7 µM.

With `CCOC(=O)/C=C/c1cccc(F)c1`, the TGI in the experiment with COLO 205 colon, in the experiment on HCT-15 colon, in the experiment with K-562 leukemia, in the experiment with MDA-MB-435, in the experiment on OVCAR-4 ovarian and with OVCAR-5 ovarian was more than 100 µM each time. Moreover, the TGI with PC-3 prostate, in the experiment on SF-268 CNS and in the experiment on SNB-19 CNS was more than 100 µM in each case.

For the compound `Nc1c2ccccc2nc2c(C(=O)Nc3ccc(S(N)(=O)=O)cc3)cccc12`, the TGI in the experiment with COLO 205 colon, with HCT-15 colon, in the experiment with K-562 leukemia, in the experiment on OVCAR-4 ovarian, with OVCAR-5 ovarian and with SF-268 CNS was more than 100 µM throughout. The TGI in the experiment with SK-OV-3 ovarian and in the experiment with SNB-19 CNS was more than 100 µM in each case.

The record behind these values is PubChem BioAssay (NCI).
